Patent US12115151B2, “Method of treatment of p53 WT tumors” (Dana-Farber Cancer Institute, Inc., priority 2018, dated 2024)
Where “and” joins values, the source holds several entries; their conditions need not be identical. Identical values can stand only once. Entries after “also recorded” stand apart in the source; their conditions may differ.

Columns and labels:
CK1α [1] = target: T1, CK1α (Homo sapiens, UniProt P48729); test: Western blot of CK1α in UISO cells; assay type: cell-based; conditions: lenalidomide 10 μM, 24 hours
Source text: Of note, UISO has less MDM2 and MDM4 proteins than MKL-1.

MKL-1 MCC cells = test: XTT cell viability assay and synergy testing, MKL-1 cells; assay type: cell-based; conditions: 96 hours; for Response-rep1 / Response-rep2: HDM201 0 nM; for relative viability (XTT), untreated = 1: combinations with a fixed amount of Lenalidomide (5 uM), replicate columns; for Response: relative viability vs untreated
Protocol: Cell viability assays were performed using Cell Proliferation Kit II (XTT) (Roche) according to the manufacturer's instructions and BH3 profiling was described in Pallis et al. (36). Synergy testing was performed using Compusyn and Synergyfinder (28, 29).
The XTT assay was performed to determine the relative viability (% response) normalized to untreated cells.

CK1α [2] = target: T1, CK1α; test: Western blot of CK1α protein levels in MKL-1 cells; assay type: cell-based; conditions: IMiD 10 μM
Protocol: Confluent cultures of cells were washed with ice-cold phosphate-buffered saline (PBS) and resuspended in EBC lysis buffer (50 mM Tris, pH 8.0, 150 mM NaCl, 0.5% NP-40, 1:10,000-mercaptoethanol, 0.5 mM EDTA) for 10 min on ice and then centrifuged. Clarified lysates were incubated overnight with antibodies and magnetic protein A/G beads (PureProteome magnetic beads, EMD Millipore). […] Quantitative western blotting was performed using the Odyssey near-infrared system (Li-Cor Biotechnology).

MDM4 binding to p53 = test: Immunoprecipitation of MDM4, p53 and CK1α from MKL-1 lysates; assay type: cell-based; conditions: MKL-1 cells; nutlin-3 5 μM, lenalidomide 10 μM, 40 hours
Protocol: (§1) Confluent cultures of cells were washed with ice-cold phosphate-buffered saline (PBS) and resuspended in EBC lysis buffer (50 mM Tris, pH 8.0, 150 mM NaCl, 0.5% NP-40, 1:10,000-mercaptoethanol, 0.5 mM EDTA) for 10 min on ice and then centrifuged. Clarified lysates were incubated overnight with antibodies and magnetic protein A/G beads (PureProteome magnetic beads, EMD Millipore). […] Mouse monoclonal antibodies Ab3 and Ab5 against MCV T antigens were generated against MCV large T antigen residues 1 to 260 and produced as a glutathione S-transferase (GST) fusion protein in bacteria (17). Quantitative western blotting was performed using the Odyssey near-infrared system (Li-Cor Biotechnology).

MKL-1 MCC xenografts = test: Xenograft efficacy study; conditions: individual animals, oral daily, HDM201 40 mg/kg and/or lenalidomide 50 mg/kg; for Tumor Volume Change, Abs Ch = T − T0: tumor volumes in mm3
Source text: The study was terminated when the tumor volume reached the maximum permissible size of 2000 mm3.

p53 = test: Western blot of p53 activation in MKL-1 cells; assay type: cell-based; conditions: 24-40 hours
Protocol: as §1

T1 sequence (P48729 whole entry): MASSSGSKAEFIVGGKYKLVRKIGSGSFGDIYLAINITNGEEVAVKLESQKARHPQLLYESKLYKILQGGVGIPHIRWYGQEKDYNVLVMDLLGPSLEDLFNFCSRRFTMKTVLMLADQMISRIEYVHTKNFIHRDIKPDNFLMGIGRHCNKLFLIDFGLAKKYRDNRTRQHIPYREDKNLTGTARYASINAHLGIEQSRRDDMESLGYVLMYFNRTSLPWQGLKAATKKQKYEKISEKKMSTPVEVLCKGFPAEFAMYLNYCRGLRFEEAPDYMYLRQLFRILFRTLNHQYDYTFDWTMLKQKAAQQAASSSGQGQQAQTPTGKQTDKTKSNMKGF

SMILES: Nc1cccc2c1CN(C1CCC(=O)NC1=O)C2=O (racemic) [Lenalidomide, (RS)-3-(7-Amino-3-oxo-1H-isoindol-2-yl)piperidin-2,6-dion]
- CK1α levels (CK1α [1]): depletes CK1α
- CK1α levels (CK1α [1]; listed as lenalidomide): decreased the CK1α levels
- Response-rep1 (MKL-1 MCC cells; Lenalidomide 5000 nM): 98.9539%
- Response-rep2 (MKL-1 MCC cells; Lenalidomide 5000 nM): 97.73%
- Response-rep1 (MKL-1 MCC cells; Lenalidomide 10000 nM): 83.3296%
- Response-rep2 (MKL-1 MCC cells; Lenalidomide 10000 nM): 76.26%
- Response-rep1 (MKL-1 MCC cells; Lenalidomide 15000 nM): 69.78%
- Response-rep2 (MKL-1 MCC cells; Lenalidomide 15000 nM): 67.82%
- Response-rep1 (MKL-1 MCC cells; Lenalidomide 18000 nM): 25.1812%
- Response-rep2 (MKL-1 MCC cells; Lenalidomide 18000 nM): 49.26%
- relative viability (XTT), untreated = 1 (MKL-1 MCC cells; Nutlin-3 or RG7388 level 25 (unit not given)): 1.143 and 0.8845 and 1.022
- relative viability (XTT), untreated = 1 (MKL-1 MCC cells; Nutlin-3 or RG7388 level 50 (unit not given)): 1.089 and 0.9384 and 1.081
- relative viability (XTT), untreated = 1 (MKL-1 MCC cells; Nutlin-3 or RG7388 level 75 (unit not given)): 1.027 and 1.061 and 1.086
- relative viability (XTT), untreated = 1 (MKL-1 MCC cells; Nutlin-3 or RG7388 level 90 (unit not given)): 1.011 and 0.945 and 0.9521
- Response (MKL-1 MCC cells; Lenalidomide 5000 nM alone): 104.85%
- Response (MKL-1 MCC cells; Lenalidomide 10000 nM alone): 105.06%
- Response (MKL-1 MCC cells; Lenalidomide 15000 nM alone): 107.06%
- Response (MKL-1 MCC cells; Lenalidomide 18000 nM alone): 100.64%
- CK1α protein levels (CK1α [2]): reduces CK1α protein rapidly; also recorded: decreases CK1α protein levels
- CK1α protein levels (CK1α [2]; listed as lenalidomide): levels rapidly decreased
- MDM4 binding to p53 (co-immunoprecipitation) (MDM4 binding to p53): reduces MDM4 binding to p53
- Tumor Volume Change, % Ch = (T − T0)/T0 (MKL-1 MCC xenografts; day 0): 0.00%
- Tumor Volume Change, Abs Ch = T − T0 (MKL-1 MCC xenografts; day 0): 0.00
- Tumor Volume Change, % Ch = (T − T0)/T0 (MKL-1 MCC xenografts; day 4): 74.88% and 101.33% and 102.10% and 99.96% and 150.37% and 52.58% and 63.66% and 71.12%
- Tumor Volume Change, Abs Ch = T − T0 (MKL-1 MCC xenografts; day 4): 144.53 and 151.67 and 182.72 and 171.42 and 196.53 and 107.98 and 82.85 and 113.80
- Tumor Volume Change, % Ch = (T − T0)/T0 (MKL-1 MCC xenografts; day 7): 172.14% and 170.30% and 232.85% and 199.00% and 277.21% and 108.30% and 219.88% and 209.85%
- Tumor Volume Change, Abs Ch = T − T0 (MKL-1 MCC xenografts; day 7): 332.29 and 254.90 and 416.69 and 341.29 and 362.30 and 222.38 and 286.16 and 335.77
- Tumor Volume Change, % Ch = (T − T0)/T0 (MKL-1 MCC xenografts; day 11): 532.35% and 513.08% and 584.49% and 475.00% and 680.10% and 321.83% and 431.10% and 501.46%
- Tumor Volume Change, Abs Ch = T − T0 (MKL-1 MCC xenografts; day 11): 1027.58 and 768.00 and 1045.97 and 814.62 and 888.86 and 660.89 and 561.06 and 802.36
- Tumor Volume Change, % Ch = (T − T0)/T0 (MKL-1 MCC xenografts; day 14): 811.07% and 861.89% and 936.62% and 702.42% and 1182.50% and 538.29% and 804.69% and 779.36%
- Tumor Volume Change, Abs Ch = T − T0 (MKL-1 MCC xenografts; day 14): 1565.59 and 1290.11 and 1676.13 and 1204.65 and 1545.48 and 1105.37 and 1047.26 and 1246.99
- Tumor Volume Change, % Ch = (T − T0)/T0 (MKL-1 MCC xenografts; day 18): 1406.04% and 1123.01% and 1595.67% and 1146.29% and 1544.08% and 774.41% and 1719.65% and 1318.82%
- Tumor Volume Change, Abs Ch = T − T0 (MKL-1 MCC xenografts; day 18): 2714.05 and 1680.96 and 2855.54 and 1965.88 and 2018.05 and 1590.25 and 2238.02 and 2110.15
- p53 activation (p53, P-p53, Ac-p53, p21, PUMA levels) (p53): modest positive effect on p53 levels
